Data published in patent publication EP0914370B1, “PROCESS FOR PRODUCING CLOSED CELL THERMOPLASTIC FOAMS CONTAINING HFC-134” (E.I. DU PONT DE NEMOURS AND COMPANY, priority 1996, dated 1998).
Marks after values point to notes of the source that are not given here.

Assays:
[1] = Solubility and solution pressure of blowing agents in Quantum "Petrothene" grade low density polyethylene, same procedure; format: physicochemical
[2] = Solubility and solution pressure of blowing agents in polystyrene resin, calculated with the Flory-Huggins equation; format: physicochemical; details: for WT% Blowing Agent Dissolves in Resin: atmospheric pressure (14.7 psia, 1 bar)
Text: Certain aspects of the invention are illustrated by the Figures. The accompanying figures illustrate the suitability of HFC-134 as blowing agent for producing polystyrenic foam bodies, the data presented therein were obtained with the aid of the well-known Flory-Huggins equation (Flory, P.J.: "Principles of Polymer Chemistry"; Cornell University Press, Ithaca, N.Y.), discussed below.
These equilibrium pressures relate to the point in the extrusion process where blowing agent is mixed with resin; foaming cannot occur at these pressures.
The data presented in Figures 3-6 were determined through use of the Flory-Huggins equation for phase equilibria in polymer solutions. This equation uses values for the following parameters [(1) - (4)], which were obtained as follows: (1) liquid densities of the blowing agents, g/cc, were derived by using standard methods, drawing a straight line through the liquid density data (based on National Institute of Standards and Technology, NIST, experimental data; with equations based on the Modified Benedict-Webb-Rubin, MBWR, equation of state) from -50°C to 50°C and calculating the liquid density as a function of temperature. The density (d) equation recites: d=AT+B, wherein A is the slope of the line, B is the constant of the line, and T temperature (°C). The liquid densities are (grams/cubic centimeter, g/cm^3):
(2) The densities of the superheated vapors of the blowing agents, which are tabulated below, were calculated from the known vapor data of their thermodynamic properties (based on National Institute of Standards and Technology, NIST, experimental data; with equations based on the Modified Benedict-Webb-Rubin, MBWR, equation of state).
(3) The activity coefficients for the blowing agents that are tabulated below:
These coefficients were determined by dividing the experimental blowing agent partial pressure by the saturated vapor pressure at that temperature. (4) The interaction parameters, X1, were determined at four temperatures, and are presented graphically as a function of temperature in Figure 2 by means of the following equation and equation constants: X1 = A/T + B [formula] (where T = °K = °C + 273.2)
Such data are presented graphically in Figures 3, 4, 5 and 6. Figures 3-6 are plots of "weight% Blowing Agent Dissolved in Resin vs. Pressure of Solution" as a function of temperature. Representative solubilities of the blowing agents in the given resin at various extrusion process temperatures at atmospheric pressure (14.7 psia, 1 bar), are listed below in Table 1: Table 1

[3] = low density polyethylene, 25°C, 1 Atm
[4] = low density polyethylene, 180°C, 1 Atm
[5] = low density polyethylene, Extruder Temp 180°C
[6] = polystyrene resin, 25°C (footnote *)

Row | Compound | Solubility (wt % HFC) at 1 Atm of HFC Pres. 25°C [1, 3] | Solubility (wt % HFC) at 1 Atm of HFC Pres. Ext Temp [1, 4] | Limiting Solubility (wt % HFC) [1, 5] | HFC-134/HFC-134a solubility ratio [2] | Limiting Solubility (wt % HFC) [2] | Solubility (wt % HFC) at 1 Atm of HFC Pres. 25°C [2] | Solubility (wt % HFC) at 1 Atm of HFC Pres. Ext Temp [2] | WT% Blowing Agent Dissolves in Resin [2, 6] | WT% Blowing Agent Dissolves in Resin ([2]; polystyrene resin, 60°C) | WT% Blowing Agent Dissolves in Resin ([2]; polystyrene resin, 100°C) | WT% Blowing Agent Dissolves in Resin ([2]; polystyrene resin, 140°C) | WT% Blowing Agent Dissolves in Resin ([2]; polystyrene resin, 180°C) | WT% Blowing Agent Dissolves in Resin ([2]; polystyrene resin, 200°C) | Limiting Solubility (wt % HFC) [1] | Solubility (wt % HFC) at 1 Atm of HFC Pres. 25°C [1] | Solubility (wt % HFC) at 1 Atm of HFC Pres. Ext Temp [1] | Solubility (wt % HFC) at 1 Atm of HFC Pres. 25°C ([2]; polystyrene resin, 25°C, 1 Atm) | Solubility (wt % HFC) at 1 Atm of HFC Pres. Ext Temp ([2]; polystyrene resin, 180°C, 1 Atm) | Limiting Solubility (wt % HFC) ([2]; polystyrene resin, Extruder Temp 180°C) | WT% Blowing Agent Dissolves in Resin ([2]; polystyrene resin, 20°C)
1 | FC(F)(Cl)C(F)(F)Cl [HCFC-114, 1,2-dichloro-1,1,2,2-tetrafluoroethane] | 2.01 wt % HFC | 0.38 wt % HFC | 78 wt % HFC |  |  |  |  |  |  |  |  |  |  |  |  |  |  |  |  | 
2 | FC(F)C(F)F [HFC-134, 1,1,2,2-tetrafluoroethane] |  |  |  | about 2/1 | 81 wt % HFC | 0.54 wt % HFC | 0.2 wt % HFC | 0.6* WT% | 0.5 WT% | 0.4 WT% | 0.3 WT% | 0.2 WT% | 0.15 WT% | 81 wt % HFC | 0.64 wt % HFC | 0.20 wt % HFC |  |  |  | 
3 | FCC(F)(F)F [HFC-134a, 1,1,1,2-tetrafluoroethane] | 0.22 wt % HFC | 0.14 wt % HFC | 74 wt % HFC |  |  |  |  | 0.16* WT% | 0.2 WT% | 0.19 WT% | 0.15 WT% | 0.1 WT% | 0.08 WT% |  |  |  | 0.16 wt % HFC | 0.11 wt % HFC | 69 wt % HFC | 
4 | CC(F)(F)F [HFC-143a, 1,1,1-trifluoroethane] |  |  |  |  | 69 wt % HFC | 0.04 wt % HFC | 0.07 wt % HFC |  | 0.08 WT% | 0.13 WT% | 0.1 WT% | 0.07 WT% | 0.05 WT% |  |  |  |  |  |  | 0.04 WT%
5 | CC(F)F [HFC-152a, 1,1-difluoroethane] |  |  |  |  | 83 wt % HFC | 0.76 wt % HFC | 0.2 wt % HFC |  | 0.5 WT% | 0.4 WT% | 0.3 WT% | 0.2 WT% | 0.15 WT% |  |  |  |  |  |  | 0.8 WT%
6 | CCF [HFC-161, 1-fluoroethane] | 0.22 wt % HFC | 0.24 wt % HFC | 89 wt % HFC |  |  |  |  |  |  |  |  |  |  |  |  |  |  |  |  | 
